Measurements: patent US9320809B2, “Nanoparticle comprising hydrophobic drug conjugated to cationic polymer and hydrophilic drug conjugated to anionic polymer” (University-Industry Foundation, Yonsei University, priority 2014, dated 2016)

Tested on: Bax, Bcl-2, Bcl-xL mRNA in HuCCT1 and SCK cells
Test: Expression level of apoptosis-related genes (real-time PCR)
Type: cell-based
Conditions: same amount of drugs; for change of apoptosis gene expression according to the level of expression of CD44: HuCCT1 versus SCK
Method: The level of expression of an apoptosis gene of each material was compared and analyzed under the same condition as Experimental Example 4.
Specifically, 1×10^6 HuCCT1 and SCK cells were treated with GEM, PTX, GEM+PTX, HA-GEM, PLL-PTX, HA-GEM, and MDNCs for 4 hours based on the same amount of GEM and PTX. Then, the cells were incubated in a new medium for 24 hours, and thereby the cells were obtained. Total amount of RNA with respect to all the obtained cells was obtained with an RNeasy plus mini kit (QIAGEN Gmbh), and then a concentration of total RNA was obtained using a biophotometer. Thereafter, 2 μg of complementary DNA (cDNA) with respect to the total RNA was synthesized through a high capacity RNA-to-cDNA kit (Applied Biosystems; Thermo Fisher Scientific Inc.). Quantitative analysis of the synthesized cDNA was performed using a QuantiMix SYBR Kit (PKT, Korea) in a real-time PCR system (LightCycler 480 System, HNS Bio). The quantitative analysis was performed through a reacting solution (20 μl) including cDNA (1 μl), SYBR Green mixture (10 μl), each of forward primer (1 μl) and reverse primer (1 μl), and DEPC water (7 μl). The used primers were as follows: […]
PCR was performed at 95° C. for 5 minutes, and then genes were amplified for 45 cycles (10 seconds at 95° C., 10 seconds at 60° C., and 10 seconds at 72° C.). A relative amount of each mRNA was analyzed using a Ct method (2-ΔΔCt) based on GAPDH of each cell, from data obtained as described above.

| SMILES | change of apoptosis gene expression according to the level of expression of CD44 | effects on apoptosis gene expression compared with MDNCs |
| --- | --- | --- |
| Nc1ccn([C@@H]2O[C@H](CO)[C@@H](O)C2(F)F)c(=O)n1 [GEM, gemcitabine] | few changes | lower than those of the MDNCs |
| CC(=O)O[C@H]1C(=O)[C@@]2(C)[C@H]([C@H](OC(=O)c3ccccc3)[C@]3(O)C[C@H](OC(=O)[C@H](O)[C@@H](NC(=O)c4ccccc4)c4ccccc4)C(C)=C1C3(C)C)[C@]1(OC(C)=O)CO[C@@H]1C[C@@H]2O [PTX, paclitaxel] | few changes | lower than those of the MDNCs |
